Source: patent US10688099B2, “Methods for modulating the amount of RNA transcripts” (PTC Therapeutics, Inc., priority 2013, dated 2020)

System: RNA isoforms in PNN 1-46 SMA type I patient-derived fibroblasts
Test: RNA Abundance Modulation (RNA isoform abundance, iFPM, HiSeq RNA sequencing)
Format: cell-based, human
Details: 3 μM
Description: Cells from a cell line of interest are cultured in conditions sufficient to yield the number of cells capable of generating enough RNA for subsequent sequencing steps. Cells from the tested cell line are contacted with a compound described herein.
To culture said cells, they are seeded, at appropriate concentrations in a volume of media in a cell culture container and incubated for 4, 5, 6, 7, 8, 9, 10, or more hours. A concentrated solution of compound in a vehicle (e.g., DMSO) is then added in sufficient volume to result in the intended final concentration of the compound, for example 100 nM, 500 nM, 1 μM, 5 μM, 10 μM, 15 μM, 20 μM, or more. The cells may also be treated with vehicle alone, as a control. A number of replicates of each concentration or control may be made (e.g., 2 replicates). The cells are then incubated at a constant temperature appropriate for cell culture of the particular cell line (e.g., 37° C.) for 6, 12, 18, 24, 48, or more hours. After incubation, the growth medium is removed and the cells are washed with the appropriate buffer (e.g., PBS). Cells are then removed from adherence to the cell culture container by treatment with a solution containing trypsin, and the trypsin subsequently quenched with the appropriate volume of buffer (e.g., DMEM-FBS). The cells are then pelleted with gentle centrifugation (e.g., ≤90×g centrifugal force) and resuspended in a buffer to lyse the cells for extraction of RNA. The cell lysates may then be frozen (e.g., at −80° C.) or, alternately, may immediately be used in a procedure to purify the RNA (e.g. by use of the RNEASY PLUS® minikit). The RNA from cell lysates is eluted in the appropriate volume of buffer (e.g., RNEASE-FREE H2O®). The resulting purified RNA may then be sequenced (e.g., using RNASeq) or analyzed using a human exon array (e.g., by GENECHIP® human exon array) to determine changes in the RNA levels in those cells treated with compound compared to those cells treated only with DMSO. The purified RNA may also be quantified by other methods known in the art.
Using the RNA data obtained from sequencing, exon array, or other methods, a statistical analysis can reveal changes in the RNA levels of compound-treated compared with control. For example, t-test p-values may be calculated for the data obtained through sequencing and exon array methods in order to compare compound-treated cells to those treated with the DMSO control. […] Analysis of the sequencing and exon array data may then also yield predictions about the cause of the aberrant amount of an RNA transcript in the cells (e.g., perturbation of RNA splicing, RNA transcription, or RNA stability). These predictions may be further confirmed by methods known in the art. For example, RT-PCR and RT-qPCR may be used to confirm the change in amount of RNA transcripts for one or more particular transcripts of interest.
Following the methods described above in Example 1, PNN 1-46 SMA type I patient-derived fibroblasts were treated with 300 nM or 3 μM Compounds 774 and 808 in 0.5% DMSO.
700,000 cells were seeded in 10 mL of medium (DMEM plus 10% FBS) in a T-75 flask. Cells were allowed to attach for at least 4 hrs, after which 50 μL of a 200× compound solution (100% DMSO) was added to each well, and the plate was incubated at 37° C. for 24 hrs.
At the end of the incubation period, the supernatant was removed and the cells where washed with PBS. TrypLE (Invitrogen) express solution was added (e.g. 1.5 mL per one T75 flask). The flasks were incubated for 3 to 5 min at 37° C. The trypsin was then quenched, e.g., by adding 10 mL DMEM-FBS.
Next, the cells were pelleted using gentle centrifugation without exceeding 90×g centrifugal force. The supernatant was removed and the cell pellet was re-suspended in 600 μL RLT buffer (the RLT buffer was supplemented with beta-mercaptoethanol according to the RNeasy protocol manual) by pipetting up and down until the pellet was completely dissolved […]

CCc1nc(C)cn2nc(-c3cc(=O)n4cc(C5CCN(C)CC5)cc(C)c4n3)cc12 [Compound 774]
amp FC (x + 1) (TOMM5 CR627326): 2.36
ave Cpd (TOMM5 CR627326): 4 iFPM
FC (x + 1) (TOMM5 NM_001001790): 0.3953
L2FC (x + 1) (TOMM5 NM_001001790): −1.339
L2abs (Cpd-DMSO) (TOMM5 NM_001001790): 10.21
abs (Cpd-DMSO) (TOMM5 NM_001001790): 1185 iFPM
amp FC (x + 1) (TOMM5 NM_001001790): 2.53
ave Cpd (TOMM5 NM_001001790): 774 iFPM
FC (x + 1) (TOMM5 NM_001134484): 0.2630
L2FC (x + 1) (TOMM5 NM_001134484): −1.927
L2abs (Cpd-DMSO) (TOMM5 NM_001134484): 3.41
abs (Cpd-DMSO) (TOMM5 NM_001134484): 11 iFPM
amp FC (x + 1) (TOMM5 NM_001134484): 3.80
ave Cpd (TOMM5 NM_001134484): 3 iFPM
FC (x + 1) (TOMM5 NM_001134485): 0.4705
L2FC (x + 1) (TOMM5 NM_001134485): −1.088
L2abs (Cpd-DMSO) (TOMM5 NM_001134485): 4.88
abs (Cpd-DMSO) (TOMM5 NM_001134485): 29 iFPM
amp FC (x + 1) (TOMM5 NM_001134485): 2.13
ave Cpd (TOMM5 NM_001134485): 25 iFPM
FC (x + 1) (TRAF3 NM_003300): 0.1622
L2FC (x + 1) (TRAF3 NM_003300): −2.624
L2abs (Cpd-DMSO) (TRAF3 NM_003300): 8.22
abs (Cpd-DMSO) (TRAF3 NM_003300): 298 iFPM
amp FC (x + 1) (TRAF3 NM_003300): 6.17
ave Cpd (TRAF3 NM_003300): 57 iFPM
FC (x + 1) (TRAF3 NM_145725): 0.7367
L2FC (x + 1) (TRAF3 NM_145725): −0.441
L2abs (Cpd-DMSO) (TRAF3 NM_145725): 8.08
abs (Cpd-DMSO) (TRAF3 NM_145725): 271 iFPM
amp FC (x + 1) (TRAF3 NM_145725): 1.36
ave Cpd (TRAF3 NM_145725): 757 iFPM
FC (x + 1) (TRAF3 NM_145726): 1.0000
L2FC (x + 1) (TRAF3 NM_145726): 0.000
L2abs (Cpd-DMSO) (TRAF3 NM_145726): 0
abs (Cpd-DMSO) (TRAF3 NM_145726): 0 iFPM
amp FC (x + 1) (TRAF3 NM_145726): 1.00
ave Cpd (TRAF3 NM_145726): 0 iFPM
FC (x + 1) (TRAF3 NM_001199427): 1.2405
L2FC (x + 1) (TRAF3 NM_001199427): 0.311
L2abs (Cpd-DMSO) (TRAF3 NM_001199427): 2.15
abs (Cpd-DMSO) (TRAF3 NM_001199427): 4 iFPM
amp FC (x + 1) (TRAF3 NM_001199427): 1.24
ave Cpd (TRAF3 NM_001199427): 22 iFPM
FC (x + 1) (TRAK1 AK295848): 1.1521
L2FC (x + 1) (TRAK1 AK295848): 0.204
L2abs (Cpd-DMSO) (TRAK1 AK295848): 6.64
abs (Cpd-DMSO) (TRAK1 AK295848): 100 iFPM
amp FC (x + 1) (TRAK1 AK295848): 1.15
ave Cpd (TRAK1 AK295848): 755 iFPM
FC (x + 1) (TRAK1 NM_014965): 0.0190
L2FC (x + 1) (TRAK1 NM_014965): −5.718
L2abs (Cpd-DMSO) (TRAK1 NM_014965): 5.69
abs (Cpd-DMSO) (TRAK1 NM_014965): 52 iFPM
amp FC (x + 1) (TRAK1 NM_014965): 52.63
ave Cpd (TRAK1 NM_014965): 0 iFPM
FC (x + 1) (TRAK1 NM_001042646): 0.6949
L2FC (x + 1) (TRAK1 NM_001042646): −0.525
L2abs (Cpd-DMSO) (TRAK1 NM_001042646): 7.09
abs (Cpd-DMSO) (TRAK1 NM_001042646): 136 iFPM
amp FC (x + 1) (TRAK1 NM_001042646): 1.44
ave Cpd (TRAK1 NM_001042646): 309 iFPM
FC (x + 1) (TRAK1 NM_001265608): 0.8894
L2FC (x + 1) (TRAK1 NM_001265608): −0.169
L2abs (Cpd-DMSO) (TRAK1 NM_001265608): 6.46
abs (Cpd-DMSO) (TRAK1 NM_001265608): 88 iFPM
amp FC (x + 1) (TRAK1 NM_001265608): 1.12
ave Cpd (TRAK1 NM_001265608): 705 iFPM
FC (x + 1) (TRAK1 NM_001265610): 0.6862
L2FC (x + 1) (TRAK1 NM_001265610): −0.543
L2abs (Cpd-DMSO) (TRAK1 NM_001265610): 3.13
abs (Cpd-DMSO) (TRAK1 NM_001265610): 9 iFPM
amp FC (x + 1) (TRAK1 NM_001265610): 1.46
ave Cpd (TRAK1 NM_001265610): 18 iFPM
FC (x + 1) (TRAPPC12 AK094181): 1.2209
